Our source for the IC50 values is US8829007B2 (priority 2009, dated 2014).

In this assay the test system is influenza A virus (A/PR/8/34). As to the kind of experiment: microbe, parasite or virus in culture. The class given is cell-based.
[1] abbreviates: mean all, A/PR/8/34 infected MDCK cells, CPE assay, read-out: IC50.
[2] abbreviates: Influenza A virus, PR/8, MDCK, mean all, A/PR/8/34 infected MDCK cells, CPE assay, read-out: IC50.
[3] abbreviates: Influenza A virus, PR/8, MDCK, MDCK cells infected with A/PR/8/34, survival of infected cells, class symbols, read-out: IC50 (mean all).
Setting [4] is: MDCK cells infected with A/PR/8/34, survival of infected cells, class symbols, read-out: IC50 (mean all).

Broadly, the IC50 is the concentration that inhibits the measured activity by half.

SMILES strings stand for the structures. Where two headings read alike, the source gives them in different places. A value given as a limit tells only on which side of the number the result lay.

On to `CC(=O)NC1CCCCC1Nc1nc(-c2c[nH]c3ncc(Cl)cc23)ncc1F` (stereo not shown) [Compound 429], for which the IC50 under setting [1] is 5 to 20 µM.

Consider `CC(C)C(=O)N1CCC[C@H](Nc2nc(-c3c[nH]c4ncc(Cl)cc34)ncc2F)C1` [Compound 436], for which, under setting [2], the IC50 is under 5 µM.

Regarding `CC(C)(C)C(=O)N1CCC[C@H](Nc2nc(-c3c[nH]c4ncc(Cl)cc34)ncc2F)C1` [Compound 437], the IC50 under setting [2] is over 20 µM.

As to `CCOC(=O)N1CCC[C@H](Nc2nc(-c3c[nH]c4ncc(Cl)cc34)ncc2F)C1` [Compound 441], the IC50 under setting [2] fell in the range of 5 to 20 µM.

Turning to `CC(C)OC(=O)N1CCC[C@H](Nc2nc(-c3c[nH]c4ncc(Cl)cc34)ncc2F)C1` [Compound 442], the IC50 under setting [2] was 5 to 20 µM.

Consider `CC1(C(=O)N2CCC[C@H](Nc3nc(-c4c[nH]c5ncc(Cl)cc45)ncc3F)C2)CC1` [Compound 445], for which the IC50 under setting [2] was under 5 µM.

`CC(C)NC(=O)N1CCOC(CNc2nc(-c3c[nH]c4ncc(Cl)cc34)ncc2F)C1` (stereo not shown) [Compound 446, 2-((2-(5-chloro-1H-pyrrolo[2,3-b]pyridin-3-yl)-5-fluoropyrimidin-4-ylamino)methyl)-N-isopropylmorpholine-4-carboxamide]: the IC50 under setting [2] is over 20 µM.

On to `CC(C)OC(=O)N1CCOC(CNc2nc(-c3c[nH]c4ncc(Cl)cc34)ncc2F)C1` (stereo not shown) [Compound 447, Isopropyl 2-((2-(5-chloro-1H-pyrrolo[2,3-b]pyridin-3-yl)-5-fluoropyrimidin-4-ylamino)methyl)morpholine-4-carboxylate], for which the IC50 under setting [2] is over 20 µM.

As for `CC(C)S(=O)(=O)N1CCOC(CNc2nc(-c3c[nH]c4ncc(Cl)cc34)ncc2F)C1` (stereo not shown) [Compound 448, 2-(5-chloro-1H-pyrrolo[2,3-b]pyridin-3-yl)-5-fluoro-N-((4-(isopropylsulfonyl)morpholin-2-yl)methyl)pyrimidin-4-amine], under setting [2], the IC50 was over 20 µM.

On to `CCC(=O)N1CCOC(CNc2nc(-c3c[nH]c4ncc(Cl)cc34)ncc2F)C1` (stereo not shown) [Compound 449, 1-(2-((2-(5-chloro-1H-pyrrolo[2,3-b]pyridin-3-yl)-5-fluoropyrimidin-4-ylamino)methyl)morpholino)propan-1-one], for which the IC50 under setting [2] lay within 5 to 20 µM.

On to `O=C(C1CC1)N1CCOC(CNc2nc(-c3c[nH]c4ncc(Cl)cc34)ncc2F)C1` (stereo not shown) [Compound 450, (2-((2-(5-chloro-1H-pyrrolo[2,3-b]pyridin-3-yl)-5-fluoropyrimidin-4-ylamino)methyl)morpholino)(cyclopropyl)methanone], for which the IC50 under setting [2] lay in the range of 5 to 20 µM.

Regarding `O=C(C1CC1)N1CCC[C@H](Nc2nc(-c3c[nH]c4ncc(Cl)cc34)ncc2F)C1` [Compound 451], the IC50 under setting [2] lay within 5 to 20 µM.

Turning to `CC(C)S(=O)(=O)N1CCCC(Nc2ccnc(-c3c[nH]c4ncc(Cl)cc34)n2)C1` (stereo not shown) [Compound 465], the IC50 under setting [1] lay within 5 to 20 µM.

As for `CS(=O)(=O)N1CCCC(Nc2ccnc(-c3c[nH]c4ncc(Cl)cc34)n2)C1` (stereo not shown) [Compound 466], the half-inhibitory concentration (IC50) under setting [1] was 5 to 20 µM.

As for `O=C(C1CCOC1)N1CCC(Nc2nc(-c3c[nH]c4ncc(Cl)cc34)ncc2F)C1` (stereo not shown) [Compound 467], under setting [1], the IC50 was over 20 µM.

Regarding `COCC(=O)N1CC(Nc2nc(-c3c[nH]c4ncc(Cl)cc34)ncc2F)C1` [Compound 468], under setting [2], the half-inhibitory concentration (IC50) was in the range of 5 to 20 µM.

In the case of `O=S(=O)(CC1CCCC1)N1CC(Nc2nc(-c3c[nH]c4ncc(Cl)cc34)ncc2F)C1` [Compound 469, 2-(5-chloro-1H-pyrrolo[2,3-b]pyridin-3-yl)-N-(1-(cyclopentyl-methylsulfonyl)azetidin-3-yl)-5-fluoropyrimidin-4-amine], the IC50 under setting [2] is over 20 µM.

With `CC(=O)N1CCC(Nc2nc(-c3c[nH]c4ncc(Cl)cc34)ncc2F)C1` (stereo not shown) [Compound 471], under setting [1], the IC50 was under 5 µM.

On to `CC1(C(=O)N2CC[C@@H](Nc3nc(-c4c[nH]c5ncc(Cl)cc45)ncc3F)C2)COC1` [Compound 473], for which the IC50 under setting [2] lay in the range of 5 to 20 µM.

Take `O=C(OCC1CCOC1)N1CCC(Nc2nc(-c3c[nH]c4ncc(Cl)cc34)ncc2F)C1` (stereo not shown) [Compound 475]: under setting [1], the IC50 was over 20 µM.

For the compound `COC(=O)N1CC[C@H](Nc2nc(-c3c[nH]c4ncc(Cl)cc34)ncc2F)C1` [Compound 476], the IC50 under setting [2] is 5 to 20 µM.

Regarding `CC(C)OC(=O)N1CC[C@H](Nc2nc(-c3c[nH]c4ncc(Cl)cc34)ncc2F)C1` [Compound 477], the IC50 under setting [2] was over 20 µM.

Regarding `O=C(C1CCOC1)N1CC[C@H](Nc2nc(-c3c[nH]c4ncc(Cl)cc34)ncc2F)C1` (stereo partly shown) [Compound 478], the IC50 (read-out: IC50) is 5 to 20 µM.

Turning to `O=S(=O)(CC1CCCC1)N1CC[C@H](Nc2nc(-c3c[nH]c4ncc(Cl)cc34)ncc2F)C1` [Compound 479, (S)-2-(5-chloro-1H-pyrrolo[2,3-b]pyridin-3-yl)-N-(1-(cyclopentylmethylsulfonyl)pyrrolidin-3-yl)-5-fluoropyrimidin-4-amine], under setting [2], the IC50 was over 20 µM.

As to `CC(=O)N1CC[C@H](Nc2nc(-c3c[nH]c4ncc(Cl)cc34)ncc2F)C1` [Compound 480], under setting [2], the IC50 is under 5 µM.

As for `COCC(=O)N1CC[C@H](Nc2nc(-c3c[nH]c4ncc(Cl)cc34)ncc2F)C1` [Compound 481], under setting [2], the IC50 lay within 5 to 20 µM.

For `CC1(C(=O)N2CC[C@H](Nc3nc(-c4c[nH]c5ncc(Cl)cc45)ncc3F)C2)COC1` [Compound 482], the IC50 under setting [2] is under 5 µM.

For `O=C(C1CNCCO1)N1CC[C@H](Nc2nc(-c3c[nH]c4ncc(Cl)cc34)ncc2F)C1` (stereo partly shown) [Compound 483], the IC50 under setting [2] was over 20 µM.

For `O=C(OCC1CCOC1)N1CC[C@H](Nc2nc(-c3c[nH]c4ncc(Cl)cc34)ncc2F)C1` (stereo partly shown) [Compound 484], under setting [3], the IC50 was 5 to 20 µM.

Regarding `CC(=O)N1CCC[C@H](Nc2ccnc(-c3c[nH]c4ncc(Cl)cc34)n2)C1` [Compound 485], the IC50 under setting [3] is 5 to 20 µM.

Regarding `COCC(=O)N1CCC[C@H](Nc2nc(-c3c[nH]c4ncc(Cl)cc34)ncc2F)C1` [Compound 486], the IC50 (read-out: IC50 (mean all)) is 5 to 20 µM.

For the compound `COC(=O)CCC(=O)N1CCCC(Nc2ccnc(-c3c[nH]c4ncc(Cl)cc34)n2)C1` [Compound 487, (S)-methyl 4-(3-((2-(5-chloro-1H-pyrrolo[2,3-b]pyridin-3-yl)pyrimidin-4-ylamino)piperidin-1-yl)-4-oxobutanoate], under setting [3], the IC50 is 5 to 20 µM.

For the compound `COCCC(=O)N1CCC[C@H](Nc2nc(-c3c[nH]c4ncc(Cl)cc34)ncc2F)C1` [Compound 488], where the note is “read-out: IC50 (mean all)”, the IC50 is over 20 µM.

Consider `CC(C)CC(=O)N1CCC[C@H](Nc2ccnc(-c3c[nH]c4ncc(Cl)cc34)n2)C1` [Compound 489], for which, under setting [3], the IC50 is under 5 µM.

For the compound `COCC(=O)N1CCC[C@H](CNc2ccnc(-c3c[nH]c4ncc(Cl)cc34)n2)C1` [Compound 491, (R)-1-(3-((2-(5-chloro-1H-pyrrolo[2,3-b]pyridin-3-yl)pyrimidin-4-ylamino)methyl)piperidin-1-yl)-2-methoxyethanone], under setting [3], the IC50 was under 5 µM.

Turning to `COC(=O)CCC(=O)N1CCCC(CNc2ccnc(-c3c[nH]c4ncc(Cl)cc34)n2)C1` (stereo not shown) [Compound 492], the IC50 under setting [4] lay within 5 to 20 µM.

On to `CC(C)CC(=O)N1CCC[C@H](CNc2ccnc(-c3c[nH]c4ncc(Cl)cc34)n2)C1` [Compound 494, (R)-1-(3-((2-(5-chloro-1H-pyrrolo[2,3-b]pyridin-3-yl)pyrimidin-4-ylamino)methyl)piperidin-1-yl)-3-methylbutan-1-one], for which, under setting [3], the IC50 lay within 5 to 20 µM.

As to `CS(=O)(=O)N1CCCC(Nc2nc(-c3c[nH]c4ncc(Cl)cc34)ncc2F)CC1` (stereo not shown) [Compound 496, N-(2-(5-chloro-1H-pyrrolo[2,3-b]pyridin-3-yl)-5-fluoropyrimidin-4-yl)-1-(methylsulfonyl)azepan-4-amine], under setting [3], the IC50 fell in the range of 5 to 20 µM.

Take `COC(=O)N1CCCC(Nc2nc(-c3c[nH]c4ncc(Cl)cc34)ncc2F)CC1` (stereo not shown) [Compound 498, methyl 4-(2-(5-chloro-1H-pyrrolo[2,3-b]pyridin-3-yl)-5-fluoropyrimidin-4-ylamino)azepane-1-carboxylate]: under setting [3], the IC50 is under 5 µM.

Consider `O=C1NCCCC[C@@H]1Nc1ccnc(-c2c[nH]c3ncc(F)cc23)n1` [Compound 501], for which, under setting [3], the IC50 lay in the range of 5 to 20 µM.

As to `O=C1CC[C@H](CNc2nc(-c3c[nH]c4ncc(Cl)cc34)ncc2F)N1` [Compound 503], under setting [3], the IC50 was under 5 µM.

On to `CS(=O)(=O)N1CC(Nc2nc(-c3c[nH]c4ncc(Cl)cc34)ncc2F)C1` [Compound 508], for which the IC50 under setting [4] was over 20 µM.

For the compound `NC1CCCC(Nc2ccnc(-c3c[nH]c4ncc(Cl)cc34)n2)C1` (stereo not shown) [Compound 510], the IC50 under setting [4] is over 20 µM.

In the case of `CC(C)(C)OC(=O)N1CCOCC1CNc1nc(-c2c[nH]c3ncc(Cl)cc23)ncc1F` (stereo not shown) [Compound 515, Tert-Butyl 3-((2-(5-chloro-1H-pyrrolo[2,3-b]pyridin-3-yl)-5-fluoropyrimidin-4-ylamino)methyl)morpholine-4-carboxylate], under setting [3], the IC50 is over 20 µM.

Consider `CCC(=O)N1CCOCC1CNc1nc(-c2c[nH]c3ncc(Cl)cc23)ncc1F` (stereo not shown) [Compound 516, 1-(3-((2-(5-chloro-1H-pyrrolo[2,3-b]pyridin-3-yl)-5-fluoropyrimidin-4-ylamino)methyl)morpholino)propan-1-one], for which the IC50 under setting [3] lay in the range of 5 to 20 µM.

Consider `CCCNC(=O)N1CCOCC1CNc1nc(-c2c[nH]c3ncc(Cl)cc23)ncc1F` (stereo not shown) [Compound 517, 3-((2-(5-chloro-1H-pyrrolo[2,3-b]pyridin-3-yl)-5-fluoropyrimidin-4-ylamino)methyl)-N-propylmorpholine-4-carboxamide], for which, under setting [3], the IC50 is 5 to 20 µM.

Regarding `CCN(CC)C(=O)[C@@H]1CCCC[C@@H]1Nc1nc(-c2c[nH]c3ncc(Cl)cc23)ncc1F` [Compound 518, (1R,2S)-2-(2-(5-chloro-1H-pyrrolo[2,3-b]pyridin-3-yl)-5-fluoropyrimidin-4-ylamino)-N,N-diethylcyclohexanecarboxamide], the IC50 under setting [3] was over 20 µM.

Consider `CCNC(=O)[C@@H]1CCCC[C@@H]1Nc1nc(-c2c[nH]c3ncc(Cl)cc23)ncc1F` [Compound 519, (1R,2S)-2-(2-(5-chloro-1H-pyrrolo[2,3-b]pyridin-3-yl)-5-fluoropyrimidin-4-ylamino)-N-ethylcyclohexanecarboxamide], for which the IC50 under setting [3] is 5 to 20 µM.

As to `CCN(CC)C(=O)[C@H]1CCCC[C@@H]1Nc1nc(-c2c[nH]c3ncc(Cl)cc23)ncc1F` [Compound 520], the IC50 under setting [3] was over 20 µM.
